“And” between values parts separate entries of the source, which are not always exact repeats. Equal entries are not always repeated. “Also recorded” adds a separate entry of the source. Marks after values point to notes of the source that are not given here.
Tests used:
[1] = test system: MOLM14, Kasumi-1, KOPN8 and RCH-ACV leukemia cell lines; assay: Kinase inhibitor drug combination screen, summary over the four leukemia cell lines; conditions: for No. Cell Lines: cell lines synergistically inhibited (>10% over Bliss) by drug 1 combined with AS and/or ART-838
[2] = test system: RCH-ACV; assay: Kinase inhibitor drug combination screen (MTS, Bliss-independence analysis)
[3] = test system: KOPN8; assay: as above
[4] = test system: MOLM14 cells; assay: alamarBlue cytotoxicity assay, single-drug IC50, 48 h; assay type: cell-based, human; conditions: MOLM14 (AML) cell line
Method: Peripheral wells were filled with sterile water to minimize the effects of evaporation. […] Results were normalized to cells treated with vehicle (≦0.5% DMSO) alone. IC50s were calculated using CompuSyn software and represent the means of at least three experiments performed in triplicate.

[5] = test system: MOLM14 cells; assay: ROS - mitochondrial superoxide (MitoSOX flow cytometry); assay type: cell-based, human
Method: FIGS. 4A-4D. […] CIs were computed as described above. CI<1 indicates synergy, CI=1, additivity, CI>1, antagonism. […] Cells were then loaded with 5 μM MitoSox for 30 min, washed, and analyzed by flow cytometry for MitoSox fluorescence (indicating mitochondrial superoxide) in the FL2 channel. […] Error bars represent the SEM of three independent experiments.

[6] = test system: MOLM14; assay: Kinase inhibitor drug combination screen (MTS, Bliss-independence analysis)
[7] = test system: KOPN8 cells; assay: alamarBlue cytotoxicity assay, single-drug IC50, 48 h; assay type: cell-based; conditions: Homo sapiens, KOPN-8
Method: Cytotoxicity was assessed using alamarBlue assays (Life Technologies, Grand Island, N.Y.; used for IC50 determinations and all drug combinations except the drug combination screen (method described separately below)) or Trypan Blue dye exclusion (Life Technologies, Grand Island, N.Y.; used only for experiments using inhibitors that could interfere with alamarBlue assay performance (NAC, Tiron, DFO)).
Cell lines were seeded in 96-well tissue culture plates at 10^4 cells per well (myeloid leukemia lines) or 2×10^4 cells per well (lymphoid leukemia lines) in culture medium, followed by addition of drugs at the indicated concentrations. 2-4 wells per plate containing media-only were included for background subtraction. Peripheral wells were filled with sterile water to minimize the effects of evaporation.
MOLM14 cells were treated with each of these drugs, alone and in combination with ART-838 or AS at an equipotency ratio based on the IC50s for each drug (Table 1). In Table 1, KOPN8 and MOLM14 cell lines were treated with a range of concentrations of each drug for 48 h then cytotoxicity was measured via alamarBlue assay. Results were normalized to cells treated with vehicle (≦0.5% DMSO) alone. IC50s were calculated using CompuSyn software and represent the means of at least three experiments performed in triplicate. Addition of ART-838 or AS enhanced the cytotoxicity of all six tested drugs across a range of concentrations (FIG. 2). Drug interactions were typically most favorable (more additive/synergistic or less antagonistic) at higher doses.

[8] = Drug 2 = ART-838 at approximate IC50, 48 h
[9] = KOPN8, Drug 2 = ART-838 at approximate IC50, 48 h
[10] = MOLM14, Drug 2 = ART-838 at approximate IC50, 48 h
[11] = Drug 2 = AS at approximate IC50, 48 h
[12] = MOLM14, Drug 2 = AS at approximate IC50, 48 h
[13] = KOPN8, Drug 2 = AS at approximate IC50, 48 h

fractional inhibition over Bliss prediction [6, 12]	Compound	No. Cell Lines [1]	fractional inhibition over Bliss prediction [3, 9]	fractional inhibition over Bliss prediction [6, 10]	fractional inhibition over Bliss prediction [3, 13]	further results
–	O=C(Nc1cccc(C(F)(F)F)c1)Nc1cc(S(=O)(=O)NC2CC2)ccc1-c1ccsc1 [AGI6780]	2/4**	KOPN8 (0.17),	–	–	fractional inhibition over Bliss prediction [2, 8]: RCH-ACV (0.11)
–	C[C@@H]1CCC2[C@@H](C)[C@@H](CC(COP(=O)(Oc3ccccc3)Oc3ccccc3)C[C@H]3O[C@@H]4O[C@@]5(C)CCC6[C@H](C)CCC([C@H]3C)[C@]64OO5)O[C@@H]3O[C@@]4(C)CCC1[C@@]23OO4 (stereo partly drawn) [ART-838, artemisinin-derived trioxane diphenylphosphate dimer 838]	–	–	–	–	IC50 [4]: 25 nM; mitochondrial superoxide (MitoSox MFI) ([5]; MOLM14, drug alone, 2.25x IC50, 16 h): increased; also recorded: induced superoxide to greater levels than AS
–	CC(C)C[C@H](NC(=O)[C@H](Cc1ccccc1)NC(=O)c1cnccn1)B(O)O [Bortezomib]	2/4	–	–	–	–
–	Cc1c[nH]c(-c2cnc(NCCNc3ccc(C#N)cn3)nc2-c2ccc(Cl)cc2Cl)n1 [CHIR-99021]	2/4	–	MOLM14 (0.53)	–	fractional inhibition over Bliss prediction [2, 11]: RCH-ACV (0.15)
–	C[C@@H](Oc1cc(-c2cnn(C3CCNCC3)c2)cnc1N)c1c(Cl)ccc(F)c1Cl [Crizotinib]	2/4**	KOPN8 (0.12)	–	–	fractional inhibition over Bliss prediction [2, 11]: RCH-ACV (0.13)
–	COc1cc([C@@H]2c3cc4c(cc3[C@@H](O[C@@H]3O[C@@H]5CO[C@@H](C)O[C@H]5[C@H](O)[C@H]3O)[C@H]3COC(=O)[C@H]23)OCO4)cc(OC)c1O [ETO, etoposide]	–	–	–	–	effect on ART-838-induced superoxide generation ([5]; MOLM14, combined with ART-838, 2.25x IC50s, 16 h): further enhanced; effect on AS-induced superoxide generation ([5]; MOLM14, combined with AS, 2.25x IC50s, 16 h): further enhanced; IC50 [7]: 150 nM
–	C#Cc1cccc(Nc2ncnc3cc(OCCOC)c(OCCOC)cc23)c1 [Erlotinib]	2/4	–	–	–	–
0.30 and 0.27	CCc1cc(Nc2nccc(-c3c(-c4ccc(OC)c(C(=O)Nc5c(F)cccc5F)c4)nc4ccccn34)n2)c(OC)cc1N1CCC(N2CCN(S(C)(=O)=O)CC2)CC1 [GSK-1904529A]	3/4	0.24 and 0.16	0.57 and 0.37	KOPN8 (0.18),	fractional inhibition over Bliss prediction [2, 8]: RCH-ACV (0.14); fractional inhibition over Bliss prediction [2, 11]: RCH-ACV (0.20)
0.25 and 0.15	COc1ccc(COc2ccc(Cc3cnc(N)nc3N)cc2OC)cc1 [GW-2580]	2/4	KOPN8 (0.19)	MOLM14 (0.19),	KOPN8 (0.15)	–
MOLM14 (0.21)	O=S(=O)(NCCNC/C=C/c1ccc(Br)cc1)c1cccc2cnccc12 [H-89]	2/4	KOPN8 (0.10)	MOLM14 (0.13),	–	–
–	Cc1ccc(NC(=O)c2ccc(CN3CCN(C)CC3)cc2)cc1Nc1nccc(-c2cccnc2)n1 [Imatinib]	2/4	–	–	–	–
MOLM14 (0.27),	Cn1cc(-c2ccc3nnc(C(F)(F)c4ccc5ncccc5c4)n3n2)cn1 [JNJ-38877605]	2/4	KOPN8 (0.19)	MOLM14 (0.17),	KOPN8 (0.12)	–
–	CS(=O)(=O)CCNCc1ccc(-c2ccc3ncnc(Nc4ccc(OCc5cccc(F)c5)c(Cl)c4)c3c2)o1 [Lapatinib]	2/4**	–	–	–	–
–	Cc1ccc(F)c(NC(=O)Nc2ccc(-c3cccc4[nH]nc(N)c34)cc2)c1 [Linifanib]	–	0.19	–	0.20	–
–	CO[C@@H]1[C@H](N(C)C(=O)c2ccccc2)C[C@H]2O[C@]1(C)n1c3ccccc3c3c4c(c5c6ccccc6n2c5c31)C(=O)NC4 [MID, midostaurin]	–	–	–	–	IC50 [7]: 210 nM
–	O=C(O)c1ccc(Nc2ncc3c(n2)-c2ccc(Cl)cc2C(c2c(F)cccc2F)=NC3)cc1 [MLN8054]	2/4	KOPN8 (0.11)	MOLM14 (0.15),	–	–
–	CC1(C)CNc2cc(NC(=O)c3cccnc3NCc3ccncc3)ccc21 [Motesanib]	–	0.15	–	0.11	–
MOLM14 (0.20)	Nc1ncnc2c1c(-c1cccc(OCc3ccccc3)c1)cn2C1CC(CN2CCCC2)C1 (stereo not drawn) [NVP-ADW742]	2/4	–	MOLM14 (0.17),	–	–
0.26	CCCCCCCCCCCCc1ccc(S(=O)(=O)Nc2nncs2)cc1 [PHT-427]	–	–	0.20	–	–
–	Cc1ccc(Nc2nccc(N(C)c3ccc4c(C)n(C)nc4c3)n2)cc1S(N)(=O)=O [Pazopanib]	3/4	–	–	–	–
–	CS(=O)(=O)N1CCN(Cc2cc3nc(-c4cccc5[nH]ncc45)nc(N4CCOCC4)c3s2)CC1 [Pictilisib]	–	0.14	–	0.12	–
MOLM14 (0.30),	Cc1ccc(S(=O)(=O)OCC(=O)Nc2ccc(C(=O)O)c(O)c2)cc1 [S31-201]	2/4	KOPN8 (0.23)	MOLM14 (0.18),	KOPN8 (0.17)	–
–	Cn1cnc2c(F)c(Nc3ccc(Br)cc3Cl)c(C(=O)NOCCO)cc21 [Selumetinib]	2/4	KOPN8 (0.19)	MOLM14 (0.15),	–	–
–	CC(=O)Nc1cccc(-n2c(=O)n(C3CC3)c(=O)c3c(Nc4ccc(I)cc4F)n(C)c(=O)c(C)c32)c1 [Trametinib]	–	0.20	–	0.20	–
–	Clc1ccc(Nc2nnc(Cc3ccncc3)c3ccccc23)cc1 [Vatalanib]	–	0.12	–	0.15	–
–	Oc1nc(-c2ccc(C(F)(F)F)cc2)nc2c1CSCC2 [XAV-939]	3/4	KOPN8 (0.18)	MOLM14 (0.17),	–	fractional inhibition over Bliss prediction [2, 11]: RCH-ACV (0.22)
–	ABT-263	–	–	–	–	synergy with AS or ART-838 ([1]; screens in four human leukemia cell lines): Particularly strong synergy

Compound	fractional inhibition over Bliss prediction [6, 12]	No. Cell Lines [1]	fractional inhibition over Bliss prediction [3, 9]	fractional inhibition over Bliss prediction [6, 10]	fractional inhibition over Bliss prediction [3, 13]	further results
NC(=O)c1ccc(-c2nc(-c3ccc4c(c3)OCO4)c(-c3ccccn3)[nH]2)cc1 [SB-431542]	0.16	–	–	0.11	–	–
Cc1[nH]c(/C=C2\C(=O)Nc3ccc(S(=O)(=O)N(C)c4cccc(Cl)c4)cc32)c(C)c1C(=O)N1CCN(C)CC1 [SU11274]	MOLM14 (0.28),	2/4	KOPN8 (0.39)	MOLM14 (0.17),	KOPN8 (0.17)	–
CN1CCN(CCOc2cc(OC3CCOCC3)c3c(Nc4c(Cl)ccc5c4OCO5)ncnc3c2)CC1 [Saracatinib]	0.33	–	–	0.21	–	–
COc1cc2nccc(Oc3ccc(NC(=O)Nc4cc(C)on4)c(Cl)c3)c2cc1OC [Tivozanib]	MOLM14 (0.20),	2/4	KOPN8 (0.22)	–	KOPN8 (0.11)	–
O=c1ncn2nc(Sc3ccc(F)cc3F)ccc2c1-c1c(Cl)cccc1Cl [VX-745]	MOLM14 (0.11)	2/4	KOPN8 (0.14)	–	–	–
JAK Inhibitor I	0.44	–	–	0.15	–	–
